ChEMBL document CHEMBL3044865, “Herbicidal Activity and Characteristics of Pyraflufen-ethyl for Controlling Broad-leaved Weeds in Cereals” (J Pestic Sci, 2002)
The source made the active and inactive calls.

Columns and labels:
Galium aparine [1] = assay: Herbicidal activity against Galium aparine assessed as killing at 30 g/ha post emergence application measured after 21 days after treatment; assay type: functional
Hordeum vulgare [2] = assay: Phytotoxicity in Hordeum vulgare (barley) assessed as injury at 10 g/ha post emergence application measured after 21 days after treatment; assay type: organism-based; conditions: in vivo, other, 504 h
Alopecurus myosuroides [3] = assay: Herbicidal activity against Alopecurus myosuroides assessed as killing at 10 g/ha post emergence application measured after 21 days after treatment; assay type: functional
Galium aparine [4] = assay: Herbicidal activity against Galium aparine assessed as killing at 100 g/ha post emergence application measured after 21 days after treatment; assay type: functional
Triticum aestivum [5] = assay: Phytotoxicity in Triticum aestivum (wheat) assessed as injury at 100 g/ha pre emergence application measured after 21 days after treatment; assay type: organism-based; conditions: in vivo, other, 504 h
Avena fatua [6] = assay: Herbicidal activity against Avena fatua assessed as killing at 10 g/ha post emergence application measured after 21 days after treatment; assay type: functional
Stellaria media [7] = assay: Herbicidal activity against Stellaria media assessed as killing at 10 g/ha pre emergence application measured after 21 days after treatment; assay type: functional
Viola arvensis [8] = assay: Herbicidal activity against Viola arvensis assessed as killing at 300 g/ha post emergence application measured after 21 days after treatment; assay type: functional
Veronica hederifolia [9] = assay: Herbicidal activity against Veronica hederaefolia assessed as killing at 10 g/ha post emergence application measured after 21 days after treatment; assay type: functional
Viola arvensis [10] = assay: Herbicidal activity against Viola arvensis assessed as killing at 100 g/ha post emergence application measured after 21 days after treatment; assay type: functional
Hordeum vulgare [11] = assay: Phytotoxicity in Hordeum vulgare (barley) assessed as injury at 300 g/ha pre emergence application measured after 21 days after treatment; assay type: organism-based; conditions: in vivo, other, 504 h
Stellaria media [12] = assay: Herbicidal activity against Stellaria media assessed as killing at 30 g/ha post emergence application measured after 21 days after treatment; assay type: functional
Viola arvensis [13] = assay: Herbicidal activity against Viola arvensis assessed as killing at 0.3 g/ha post emergence application measured after 21 days after treatment; assay type: functional
Triticum aestivum [14] = assay: Phytotoxicity in Triticum aestivum (wheat) assessed as injury at 0.3 g/ha post emergence application measured after 21 days after treatment; assay type: organism-based; conditions: in vivo, other, 504 h
Avena fatua [15] = assay: Herbicidal activity against Avena fatua assessed as killing at 100 g/ha post emergence application measured after 21 days after treatment; assay type: functional
Veronica hederifolia [16] = assay: Herbicidal activity against Veronica hederaefolia assessed as killing at 10 g/ha pre emergence application measured after 21 days after treatment; assay type: functional
[17] = target: T1, Protoporphyrinogen oxidase 2 (Spinacia oleracea) (UniProt Q94IG7); assay: Inhibition of Stellaria media protoporphyinogen oxidase assessed as herbicidal activity at 0.3 g/ha measured after 2 days after treatment under greenhouse by time-course analysis; design: scale not given: the % may be the effect or the level left
T1 sequence (whole entry): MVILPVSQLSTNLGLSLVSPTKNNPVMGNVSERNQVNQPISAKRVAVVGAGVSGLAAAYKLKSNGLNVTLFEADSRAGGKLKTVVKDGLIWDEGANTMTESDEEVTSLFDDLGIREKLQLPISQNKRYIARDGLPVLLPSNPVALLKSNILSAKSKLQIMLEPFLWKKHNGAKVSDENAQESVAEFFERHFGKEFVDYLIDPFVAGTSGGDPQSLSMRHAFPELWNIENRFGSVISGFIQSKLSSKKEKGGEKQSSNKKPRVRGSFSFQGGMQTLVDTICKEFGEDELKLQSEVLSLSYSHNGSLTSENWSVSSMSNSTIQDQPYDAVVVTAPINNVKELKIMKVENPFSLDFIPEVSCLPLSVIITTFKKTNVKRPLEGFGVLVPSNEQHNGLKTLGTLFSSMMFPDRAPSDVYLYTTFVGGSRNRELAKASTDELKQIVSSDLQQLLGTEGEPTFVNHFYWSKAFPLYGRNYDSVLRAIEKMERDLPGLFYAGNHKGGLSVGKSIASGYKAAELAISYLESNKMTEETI

Galium aparine [18] = assay: Herbicidal activity against Galium aparine assessed as killing at 300 g/ha post emergence application measured after 21 days after treatment; assay type: functional
Hordeum vulgare [19] = assay: Phytotoxicity in Hordeum vulgare (barley) assessed as injury at 1 g/ha post emergence application measured after 21 days after treatment; assay type: organism-based; conditions: in vivo, other, 504 h
Alopecurus myosuroides [20] = assay: Herbicidal activity against Alopecurus myosuroides assessed as killing at 3 g/ha post emergence application measured after 21 days after treatment; assay type: functional
Galium aparine [21] = assay: Herbicidal activity against Galium aparine assessed as killing at 12 g/ha measured after 21 days after treatment by time-course analysis; assay type: functional
Hordeum vulgare [22] = assay: Phytotoxicity in Hordeum vulgare (barley) assessed as injury at 100 g/ha pre emergence application measured after 21 days after treatment; assay type: organism-based; conditions: in vivo, other, 504 h
Avena fatua [23] = assay: Herbicidal activity against Avena fatua assessed as killing at 10 g/ha pre emergence application measured after 21 days after treatment; assay type: functional, organism-based
Hordeum vulgare [24] = assay: Phytotoxicity in Hordeum vulgare (barley) assessed as injury at 0.3 g/ha post emergence application measured after 21 days after treatment; assay type: organism-based; conditions: in vivo, other, 504 h
Viola arvensis [25] = assay: Herbicidal activity against Viola arvensis assessed as killing at 30 g/ha post emergence application measured after 21 days after treatment; assay type: functional
Veronica hederifolia [26] = assay: Herbicidal activity against Veronica hederaefolia assessed as killing at 30 g/ha post emergence application measured after 21 days after treatment; assay type: functional
Hordeum vulgare [27] = assay: Phytotoxicity in Hordeum vulgare (barley) assessed as injury at 10 g/ha pre emergence application measured after 21 days after treatment; assay type: organism-based; conditions: in vivo, other, 504 h
Galium aparine [28] = assay: Herbicidal activity against Galium aparine assessed as killing at 0.3 g/ha post emergence application measured after 21 days after treatment; assay type: functional
Avena fatua [29] = assay: Herbicidal activity against Avena fatua assessed as killing at 3 g/ha post emergence application measured after 21 days after treatment; assay type: functional
Alopecurus myosuroides [30] = assay: Herbicidal activity against Alopecurus myosuroides assessed as killing at 30 g/ha post emergence application measured after 21 days after treatment; assay type: functional, organism-based
Avena fatua [31] = assay: Herbicidal activity against Avena fatua assessed as killing at 30 g/ha post emergence application measured after 21 days after treatment; assay type: functional, organism-based
Viola arvensis [32] = assay: Herbicidal activity against Viola arvensis assessed as killing at 3 g/ha post emergence application measured after 21 days after treatment; assay type: functional
Galium aparine [33] = assay: Herbicidal activity against Galium aparine assessed as killing at 1 g/ha post emergence application measured after 21 days after treatment; assay type: functional
Hordeum vulgare [34] = assay: Phytotoxicity in Hordeum vulgare (barley) assessed as injury at 3 g/ha post emergence application measured after 21 days after treatment; assay type: organism-based; conditions: in vivo, other, 504 h
Viola arvensis [35] = assay: Herbicidal activity against Viola arvensis assessed as killing at 10 g/ha post emergence application measured after 21 days after treatment; assay type: functional
Viola arvensis [36] = assay: Herbicidal activity against Viola arvensis assessed as killing at 10 g/ha pre emergence application measured after 21 days after treatment; assay type: functional
[37] = Ratio of compound ED90 to […] ED90 for herbicidal activity against Matricaria inodora
Veronica hederifolia [38] = assay: Herbicidal activity against Veronica hederaefolia assessed as killing at 0.3 g/ha post emergence application measured after 21 days after treatment; assay type: functional
Stellaria media [39] = assay: Herbicidal activity against Stellaria media assessed as killing at 1 g/ha post emergence application measured after 21 days after treatment; assay type: functional
Veronica hederifolia [40] = assay: Herbicidal activity against Veronica hederaefolia assessed as killing at 3 g/ha post emergence application measured after 21 days after treatment; assay type: functional
Alopecurus myosuroides [41] = assay: Herbicidal activity against Alopecurus myosuroides assessed as killing at 100 g/ha post emergence application measured after 21 days after treatment; assay type: functional, organism-based

CCOC(=O)COc1cc(-c2nn(C)c(OC(F)F)c2Cl)c(F)cc1Cl [PYRAFLUFEN-ETHYL]
60%: Activity (Galium aparine [28])
90%: Activity [17]
Non-toxic: Activity (Triticum aestivum [14]) | Activity (Hordeum vulgare [19]) | Activity (Hordeum vulgare [24]) | Activity (Hordeum vulgare [27])
21%: Activity (Galium aparine [1]) | Activity (Avena fatua [6]) | Activity (Stellaria media [7]) | Activity (Hordeum vulgare [11]) | Activity (Viola arvensis [13])
3330: Ratio [37]
11%: Activity (Hordeum vulgare [2]) | Activity (Alopecurus myosuroides [3]) | Activity (Veronica hederifolia [26]) | Activity (Viola arvensis [36])
100%: Activity (Veronica hederifolia [9]) | Activity (Viola arvensis [35]) | Activity (Stellaria media [39]) | Activity (Veronica hederifolia [40])
inactive: Activity (Avena fatua [23]) | Activity (Alopecurus myosuroides [30]) | Activity (Avena fatua [31]) | Activity (Alopecurus myosuroides [41])
80%: Activity (Viola arvensis [32]) | Activity (Galium aparine [33])
40%: Activity (Galium aparine [4]) | Activity (Viola arvensis [10]) | Activity (Stellaria media [12]) | Activity (Viola arvensis [25]) | Activity (Veronica hederifolia [38])
>90%: Activity (Galium aparine [21])
50%: Activity (Viola arvensis [8]) | Activity (Galium aparine [18])
1%: Activity (Triticum aestivum [5]) | Activity (Avena fatua [15]) | Activity (Veronica hederifolia [16]) | Activity (Alopecurus myosuroides [20]) | Activity (Hordeum vulgare [22]) | Activity (Avena fatua [29]) | Activity (Hordeum vulgare [34])
